Source: patent US7098195B2, “Fluorinated glucosamine analogs useful for modulating post-translational glycosylations on cells” (Health Research, Inc., priority 2001, dated 2006)

Legend:
C57BL6 mice = assay: DNFB-induced delayed type hypersensitivity (ear swelling) in mice; assay type: in vivo, mouse
Protocol: Previous studies evaluating the anti-tumor and anti-metastatic effects of fluorinated hexosamine analogs and 3 or 4-F-GlcNAc, specifically, indicate that the dose limiting toxicity was ˜250 mg/kg×6 days and that i.p. administration of these sugar analogs was an efficacious mode of delivery. Thus, in these studies, a maximal dose of 250 mg/kg as well as 100 and […] doses were used in order to make both toxic and efficacy assessments of fluorinated hexosamine analog anti-inflammatory effects. To induce delayed type hypersensitivity (DTH), C57BL6 mice were sensitized on their abdomen on days 0 and 1 with 25 μl of 0.5% 2,4-dinitrofluorobenzene (DNFB) (i.e. hapten) in a 4:1 solution of acetone to olive oil (vehicle). Negative control mice were sensitized with vehicle alone. Mice were then treated from days 0–6 with drug vehicle (0.9% saline), 50 mg/kg 4-F-GlcNAc, 100 mg/kg 4-F-GlcNAc, 250 mg/kg 4-F-GlcNAc or 250 mg/kg GlcNAc (negative sugar control). Hapten-induced inflammation was then promoted on day 6 by challenging the mice with 10 μl of 0.25% DNFB on both sides of the right ear and mice also received 10 μl of vehicle alone on both sides of the left ear as a negative inflammatory control. Ear swelling responses were measured 24 h later on day 7 and subtracted from baseline measurements that were recorded on day 6.
Histological analysis of right ears from mice receiving sensitizing and challenging hapten doses that were treated with saline vehicle control did show the presence of lymphocytic infiltrate and amount of lymphocytic infiltrate corresponded to ear swelling measurements (See FIG. 14 Panel B).

C57BL/6 mice = assay: Langerhans cell migration to draining lymph nodes and FITC presentation in mice; assay type: in vivo, mouse; details: 250 mg/kg/day, cumulative dose of 750 mg/kg, 4-day experiment
Protocol: Six to eight-week old C57BL/6 mice from Charles River Laboratories (Wilmington, Mass.) were housed in pathogen-free conditions in the animal facility at the Harvard Institutes of Medicine and utilized in these experiments. For analysis of LC migration to draining lymph nodes and antigenic presentation by dendritic cells (DC), right ears of mice were painted with 25 μl of 0.5% FITC, a contact sensitizing agent dissolved in acetone-dibutyl phthalate vehicle (1:1 v/v), while left ears were painted with 25 μl of vehicle alone. After 30 h, regional auricular/cervical lymph nodes draining right or left ears, respectively, were isolated and single cell suspensions were prepared. To enrich for DC, cell suspensions were subjected to Optiprep™ (Accurate Chemicals, Westbury, N.Y.) discontinuous gradient centrifugation. […] Positive cells stained with PE-anti-CD11c were gated and analyzed for FITC expression. […]
Following a 30 h incubation, CD11c-positive LC isolated from the draining lymph nodes were analyzed for FITC expression by flow cytometry.

[1] = tested on: terminal GlcNAc or GlcNAcβ1,4GlcNAc (WGA staining); assay: Lectin blot with WGA of CLA+ T-cell lysates; assay type: cell-based, human; details: compared with PBS or GlcNAc treatments
Protocol: (§1) For lectin blotting, cell lysates (25 μg/spot) were spotted onto methanol-permeabilized PVDF membrane and blocked in FBS for 1 h at RT. Blots were then probed with AP-Canavalia ensiformis agglutinin (ConA) (2.0 μg/ml PBS; specificity: α-mannose), AP-Triticum vulgaris (Wheat germ) agglutinin (WGA) (0.5 μg/ml PBS; specificity: terminal GlcNAc or GlcNAcβ1,4GlcNAc) or AP-Lycopersicon esculentum (tomato lectin) agglutinin (LEA) (1.0 μg/ml PBS; specificity: (Galβ1,4GlcNAc)n) for 1 h at RT (All lectins from EY Labs., Inc., San Mateo, Calif.). After washing 3× in PBS/0.1% Tween-20 and 1× in PBS (10 min each), blots were developed with Western Blue®.
(§2) To analyze and identify the glycan modifications on CLA^+ T-cells treated with 4-F-GlcNAc, lectin blotting experiments were performed with ConA (Specificity: α-mannose), WGA (Specificity: terminal GlcNAc or GlcNAcβ1,4GlcNAc) and LEA (Specificity: {Galβ1,4GlcNAc}n).

HECA-452 epitopes = assay: Flow cytometric analysis of HECA-452 epitopes on human T-lymphocytes; assay type: cell-based; details: for HECA-452 Mean Channel Fluorescence: CLA+ T-cells
Protocol: Only positive cells, which were those cells with fluorescence above background autofluorescence and fluorochrome-conjugated secondary Ab staining, were analyzed.
For analysis of CLA expression on T-cells treated with glycoconjugate modifiers, CLA^+ T-cells were first pretreated with neuraminidase (0.1 U/ml at 37° C. for 1 h) to eliminate functional CLA and cleave all HECA-452 reactive epitopes from the cell surface (35–38). Since we wanted to investigate whether these compounds directly affected CLA expression and function, neuraminidase pretreatment followed by incubations with glycosylation modifiers allowed for examination of de novo synthesized CLA/HECA-452 epitopes re-expressed on the cell surface. After neuraminidase digestion, cells were then incubated with tunicamycin (0.02 mM) (an inhibitor of GlcNAc phosphotransferase, the initial step of N-glycosylation), swainsonine (0.23 mM) (an inhibitor of α-mannosidase II and complex-type N-glycosylation), 4-F-GlcNAc (0.05 mM) (putative inhibitor of poly-N-acetyllactosamine biosynthesis), BAG (an inhibitor of O-glycan biosynthesis) (<2 mM) or GlcNAc (5 mM) (negative control, naturally-occurring metabolic counterpart of 4-F-GlcNAc)for 30 h in the presence of human recombinant IL-2. […] Concentrations for BAG were selected based on maximal O-glycosylation inhibitory effects at non-growth inhibitory concentrations as previously reported (39). To determine a suitable concentration of 4-F-GlcNAc for examining glycoconjugate-modifying effects without influencing cell growth or protein synthesis, we performed preliminary growth inhibitory experiments of cells incubated with 4-F-GlcNAc for 2 cell doublings (˜36 h) at 37° C. (cell viability assessed by Trypan-blue exclusion).
Flow cytometric analysis was performed on human leukocytes utilizing both direct and indirect immunofluorescence staining approaches. All cells utilized for these experiments were washed twice with cold PBS/2%FBS and suspended at 10^7/ml PBS/1% FBS. Primary antibodies, anti-CLA (HECA-452), -CD4, -CD8, CD43 (L60) and PSGL-1 (PL-2) along with the appropriate isotype-matched control antibodies were incubated with the cells for 30 min on ice. Following two washes with PBS/2%FBS, cells were resuspended in PBS/1%FBS and fluorochrome-conjugated secondary antibodies (2 μl) and incubated for 30 min on ice.

[2] = tested on: (Galβ1,4GlcNAc)n (LEA staining); assay: Lectin blot with LEA of CLA+ T-cell lysates; assay type: cell-based, human; details: compared with PBS or GlcNAc treatments
Protocol: as §1, §2

[3] = tested on: α-mannose (ConA staining); assay type: cell-based, human; details: compared with PBS or GlcNAc treatments
Protocol: as §1, §2

CC(=O)N[C@H]1C(OC(C)=O)O[C@H](COC(C)=O)[C@@H](F)[C@@H]1OC(C)=O (stereo partly drawn) [4-F-GlcNAc, 2-acetamido-2-deoxy-1,3,6-tri-O-acetyl-4-deoxy-4-fluoro-D-glucopyranose]
inflammatory response (ear swelling) (C57BL6 mice; 50 mg/kg, days 0–6, i.p., p<0.0002): statistically significant diminution | inflammatory response (ear swelling) (C57BL6 mice; 100 mg/kg, days 0–6, i.p.): completely abrogated | inflammatory response (ear swelling) (C57BL6 mice; 250 mg/kg, days 0–6, i.p.): completely abrogated | inflammatory responses in FucTVII −/− mice (C57BL6 mice; FucTVII −/− mice): further reduced | weight gain (C57BL/6 mice): did not show similar weight gain | WGA staining of lysates [1]: elevated | HECA-452 epitopes on CLA+ T-cells (HECA-452 epitopes; 0.05, 0.1 or 0.5 mM for 30 hr after neuraminidase): marked, concentration-dependent decrease | HECA-452 Mean Channel Fluorescence (HECA-452 epitopes; neuraminidase then recovery in 0.05 mM): 228 | HECA-452 Mean Channel Fluorescence (HECA-452 epitopes; neuraminidase then recovery in 0.1 mM): 217 | HECA-452 Mean Channel Fluorescence (HECA-452 epitopes; neuraminidase then recovery in 0.5 mM): 62 | LEA staining of lysates [2]: notably diminished | ConA staining of lysates [3]: no effect

CC(=O)N[C@H]1C(O)O[C@H](CO)[C@@H](O)[C@@H]1O (some centres unmarked) [GlcNAc, N-acetylglucosamine]
inflammatory response (ear swelling) (C57BL6 mice; 250 mg/kg negative sugar control, days 0–6): no anti-inflammatory effect

O[C@H]1[C@H]2[C@H](O)CCCN2C[C@H]1O [swainsonine]
ConA staining of lysates [3]: enhanced

tunicamycin
WGA staining of lysates [1]: eliminated | LEA staining of lysates [2]: eliminated | ConA staining of lysates [3]: eliminated
